According to ChEMBL document CHEMBL4118202, “Chiral analogues of (+)-cyclazosin as potent α1B-adrenoceptor selective antagonist” (Bioorg Med Chem, 2018):

Biological target: T1, Alpha-1B adrenergic receptor (Homo sapiens, UniProt P35368)
T1 sequence (P35368 whole entry): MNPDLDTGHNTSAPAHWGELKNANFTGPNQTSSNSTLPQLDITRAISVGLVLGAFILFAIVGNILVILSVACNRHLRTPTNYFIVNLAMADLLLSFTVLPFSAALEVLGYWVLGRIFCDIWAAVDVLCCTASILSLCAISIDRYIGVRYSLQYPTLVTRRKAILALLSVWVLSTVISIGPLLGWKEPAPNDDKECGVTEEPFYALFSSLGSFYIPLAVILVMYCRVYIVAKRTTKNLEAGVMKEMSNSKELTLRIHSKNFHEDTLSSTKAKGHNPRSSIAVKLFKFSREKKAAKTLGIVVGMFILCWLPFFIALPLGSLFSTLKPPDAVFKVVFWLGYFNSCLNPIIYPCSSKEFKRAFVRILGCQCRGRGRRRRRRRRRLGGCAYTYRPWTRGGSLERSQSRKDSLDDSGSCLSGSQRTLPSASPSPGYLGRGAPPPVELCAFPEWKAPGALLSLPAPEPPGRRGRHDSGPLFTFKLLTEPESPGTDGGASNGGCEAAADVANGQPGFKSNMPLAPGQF
Test: Binding affinity to alpha1B adrenergic receptor (unknown origin)

Ki: 1.41 nM
SMILES: COc1cc2nc(N3CCN(C(=O)C4COc5ccccc5O4)[C@H]4CCCC[C@H]43)nc(N)c2cc1OC (single isomer, unassigned; (-)) [CYCLODOXAZOSIN]
